Source: PubChem BioAssay AID1963444 (Molecular Pharmacology Branch, DTP, NCI, 2024)

Test system: HSSY-II complex spheroid growth, percent test/control
Assay: Anticancer human tumor HSSY-II cell line growth inhibition [Asc];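 also: spheroids exposed to drug for 7 days before reading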
Details: for IC50: curve of first compound; for viability, T/C: stronger effect = lower value
In short: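 Spheroid model: tumor line + HUVEC + hMSC. Single agents and combinations; top conc. at/near clinical Cmax (10 microM if undetermined), half-log dilutions. DMSO stocks at 800-fold test concentration.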

[1] = second compound 0.03 µM, first compound 0.0316 µM
[2] = second compound 0.03 µM, first compound 0.1 µM
[3] = second compound 0.03 µM, first compound 0.316 µM
[4] = second compound 0.03 µM, first compound 1 µM
[5] = second compound 0.03 µM, first compound 3.16 µM
[6] = second compound 0.03 µM, first compound 10 µM
[7] = second compound 0.0949 µM, first compound 0.0316 µM
[8] = second compound 0.0949 µM, first compound 0.1 µM
[9] = second compound 0.0949 µM, first compound 0.316 µM
[10] = second compound 0.0949 µM, first compound 1 µM
[11] = second compound 0.0949 µM, first compound 3.16 µM
[12] = second compound 0.0949 µM, first compound 10 µM
[13] = second compound 0.3 µM, first compound 0.0316 µM
[14] = second compound 0.3 µM, first compound 0.1 µM
[15] = second compound 0.3 µM, first compound 0.316 µM
[16] = second compound 0.3 µM, first compound 1 µM
[17] = second compound 0.3 µM, first compound 3.16 µM
[18] = second compound 0.3 µM, first compound 10 µM
[19] = second compound 0.949 µM, first compound 0.0316 µM
[20] = second compound 0.949 µM, first compound 0.1 µM
[21] = second compound 0.949 µM, first compound 0.316 µM
[22] = second compound 0.949 µM, first compound 1 µM
[23] = second compound 0.949 µM, first compound 3.16 µM
[24] = second compound 0.949 µM, first compound 10 µM
[25] = second compound 3 µM, first compound 0.0316 µM
[26] = second compound 3 µM, first compound 0.1 µM
[27] = second compound 3 µM, first compound 0.316 µM
[28] = second compound 3 µM, first compound 1 µM
[29] = second compound 3 µM, first compound 3.16 µM
[30] = second compound 3 µM, first compound 10 µM
[31] = second compound 0.03 µM, first compound 0.00316 µM
[32] = second compound 0.03 µM, first compound 0.01 µM
[33] = second compound 0.0949 µM, first compound 0.00316 µM
[34] = second compound 0.0949 µM, first compound 0.01 µM
[35] = second compound 0.3 µM, first compound 0.00316 µM
[36] = second compound 0.3 µM, first compound 0.01 µM
[37] = second compound 0.949 µM, first compound 0.00316 µM
[38] = second compound 0.949 µM, first compound 0.01 µM
[39] = second compound 3 µM, first compound 0.00316 µM
[40] = second compound 3 µM, first compound 0.01 µM

| Compound | IC50 (second compound 0.03 µM) | IC50 (second compound 0.0949 µM) | IC50 (second compound 0.3 µM) | IC50 (second compound 0.949 µM) | IC50 (second compound 3 µM) | viability, T/C [1] | viability, T/C [2] | viability, T/C [3] | viability, T/C [4] | viability, T/C [7] | viability, T/C [8] | viability, T/C [9] | viability, T/C [10] | viability, T/C [13] | viability, T/C [14] | viability, T/C [15] | viability, T/C [16] | viability, T/C [19] | viability, T/C [20] | viability, T/C [21] | other results |
| --- | --- | --- | --- | --- | --- | --- | --- | --- | --- | --- | --- | --- | --- | --- | --- | --- | --- | --- | --- | --- | --- |
| C#Cc1c(F)ccc2cc(O)cc(-c3ncc4c(N5CC6CCC(C5)N6)nc(OCC56CCCN5CC(F)C6)nc4c3F)c12 (stereo not given) + CCN1C(C(=O)NC23CCC(C(=O)O)(CC2)CC3)C(c2cccc(Cl)c2F)C2(C(=O)Nc3cc(Cl)ccc32)C12CCCCC2 | 5960 nM | 3250 nM | < 31.6 nM | < 31.6 nM | < 31.6 nM | 91.6% | 96.6% | 91.1% | 90.7% | 52.4% | 62.3% | 65.7% | 59% | 24.8% | 27.5% | 26% | 20.6% | 7.03% | 7.37% | 6.79% | viability, T/C [5]: 80.8%; viability, T/C [6]: 24.9%; viability, T/C [11]: 50.6%; viability, T/C [12]: 9.38%; viability, T/C [17]: 20.2%; viability, T/C [18]: 0.94%; viability, T/C [22]: 5.65%; viability, T/C [23]: 5.67%; viability, T/C [24]: 0.22%; viability, T/C [25]: 2.13%; viability, T/C [26]: 2.33%; viability, T/C [27]: 2.2%; viability, T/C [28]: 1.74%; viability, T/C [29]: 1.34%; viability, T/C [30]: 0.27% |
| C=C(F)C(=O)N1CCN(c2nc(OCC3CCCN3C)nc3c2CCN(c2cccc4cccc(Cl)c24)C3)CC1CC#N (stereo not given) + CCN1C(C(=O)NC23CCC(C(=O)O)(CC2)CC3)C(c2cccc(Cl)c2F)C2(C(=O)Nc3cc(Cl)ccc32)C12CCCCC2 | 1090 nM | 340 nM | < 31.6 nM | < 31.6 nM | < 31.6 nM | 93.7% | 82.3% | 77.1% | 55.2% | 64.5% | 66.6% | 49.1% | 26.5% | 26.3% | 23.1% | 19.9% | 13.4% | 8.79% | 7.11% | 6.61% | viability, T/C [5]: 1.72%; viability, T/C [6]: 0.13%; viability, T/C [11]: 0.75%; viability, T/C [12]: 0.1%; viability, T/C [17]: 0.42%; viability, T/C [18]: 0.12%; viability, T/C [22]: 3.73%; viability, T/C [23]: 0.07%; viability, T/C [24]: 0.12%; viability, T/C [25]: 3.47%; viability, T/C [26]: 2.72%; viability, T/C [27]: 2.77%; viability, T/C [28]: 1.35%; viability, T/C [29]: 0.15%; viability, T/C [30]: 0.21% |
| C=CC(=O)N1CCN(c2nc(=O)n(-c3c(C)ccnc3C(C)C)c3nc(-c4c(O)cccc4F)c(F)cc23)C(C)C1 (stereo not given) + CCN1C(C(=O)NC23CCC(C(=O)O)(CC2)CC3)C(c2cccc(Cl)c2F)C2(C(=O)Nc3cc(Cl)ccc32)C12CCCCC2 | 7300 nM | 2580 nM | < 31.6 nM | < 31.6 nM | < 31.6 nM | 87.5% | 89.6% | 89.5% | 88% | 60.3% | 63.9% | 65.2% | 62.7% | 25.3% | 26.3% | 26% | 23.6% | 7.57% | 7.88% | 7.75% | viability, T/C [5]: 84.7%; viability, T/C [6]: 36.9%; viability, T/C [11]: 47.3%; viability, T/C [12]: 18.4%; viability, T/C [17]: 20.9%; viability, T/C [18]: 9.83%; viability, T/C [22]: 6.93%; viability, T/C [23]: 6.22%; viability, T/C [24]: 6.06%; viability, T/C [25]: 2.1%; viability, T/C [26]: 2.5%; viability, T/C [27]: 2.3%; viability, T/C [28]: 2.77%; viability, T/C [29]: 2.35%; viability, T/C [30]: 1.69% |
| CNC(C)C(=O)NC1CN(S(=O)(=O)c2cccc(S(=O)(=O)N3CCC4CCC(C(=O)NC(c5ccccc5)c5ccccc5)N4C(=O)C(NC(=O)C(C)NC)C3)c2)CCC2CCC(C(=O)NC(c3ccccc3)c3ccccc3)N2C1=O (stereo not given) + CCN1C(C(=O)NC23CCC(C(=O)O)(CC2)CC3)C(c2cccc(Cl)c2F)C2(C(=O)Nc3cc(Cl)ccc32)C12CCCCC2 | > 1000 nM | 3.28 nM | < 3.16 nM | < 3.16 nM | < 3.16 nM | 65.6% | 69.1% | 66.8% | 63.1% | 36.8% | 39.5% | 39.1% | 37.5% | 13.3% | 11% | 14.3% | 11.2% | 1.39% | 1.14% | 0.75% | viability, T/C [31]: 76.3%; viability, T/C [32]: 81.6%; viability, T/C [33]: 49.2%; viability, T/C [34]: 48.4%; viability, T/C [35]: 13.5%; viability, T/C [36]: 13.5%; viability, T/C [37]: 2.72%; viability, T/C [38]: 1.74%; viability, T/C [22]: 1.15%; viability, T/C [39]: 0.64%; viability, T/C [40]: 0.51%; viability, T/C [25]: 0.48%; viability, T/C [26]: 0.47%; viability, T/C [27]: 0.62%; viability, T/C [28]: 0.46% |
| COc1c(OCCCN2CCOCC2)ccc2c3n(c(=NC(=O)c4cnc(N)nc4)nc12)CCN3 + CCN1C(C(=O)NC23CCC(C(=O)O)(CC2)CC3)C(c2cccc(Cl)c2F)C2(C(=O)Nc3cc(Cl)ccc32)C12CCCCC2 | 26.9 nM | 3.62 nM | < 3.16 nM | < 3.16 nM | < 3.16 nM | 42.1% | 32.5% | 21% | 8.92% | 27.9% | 18.8% | 11.1% | 5.81% | 13.5% | 9.78% | 5.2% | 1.51% | 3.58% | 2.14% | 1.08% | viability, T/C [31]: 83.3%; viability, T/C [32]: 70.4%; viability, T/C [33]: 50.1%; viability, T/C [34]: 44.8%; viability, T/C [35]: 27.8%; viability, T/C [36]: 18.8%; viability, T/C [37]: 5.84%; viability, T/C [38]: 4.85%; viability, T/C [22]: 0.52%; viability, T/C [39]: 1.52%; viability, T/C [40]: 1.05%; viability, T/C [25]: 0.78%; viability, T/C [26]: 0.45%; viability, T/C [27]: 0.29%; viability, T/C [28]: 0.25% |
